Bounds are passed on as bounds.

Assay [1] has as its target HCV NS3/4A protease complex (Hepatitis C virus genotype 1a, UniProt P27958, C1454S/C1711G). The experiment in a line: Recombinant HCV NS3/4A protease complex FRET peptide assay (strain not stated). The class given is biochemical.
A further assay concerns the target T1, human liver cathepsin B (Homo sapiens, UniProt P07858).
T1 construct: from tissue; host or cells: liver
Nature of the assay: Specificity assay, human liver cathepsin B. The class given is biochemical. How it is done: The specificities of compounds of the present invention were determined against a variety of serine proteases: human leukocyte elastase, porcine pancreatic elastase and bovine pancreatic α-chymotrypsin and one cysteine protease: human liver cathepsin B. In all cases a 96-well plate format protocol using calorimetric […] (pNA) substrate specific for each enzyme was used as described previously (Patent WO 00/09543) with some modifications.
Each assay included a 1 h enzyme-inhibitor pre-incubation at RT followed by addition of substrate and hydrolysis to ˜30% conversion as measured on a Spectramax Pro microplate reader. Compound concentrations varied from 100 to 0.4 μM depending on their potency.
The final conditions and protocol for each assay was as reported previously (Patent WO 00/09543) with the inclusion of an additional assay: • 50 mM Tris-HCl pH 8, 0.5M Na2SO4, 50 mM NaCl, 0.1 mM EDTA, 3% DMSO, 0.01% Tween-20 with 133 μM succ-AAA-PNA and 20 nM Elastase
The percentage of inhibition was calculated using the formula: [1−((UVinh−UVblank)/(UVctl−UVblank))]×100

HCV NS3/4A protease complex, sequence (P27958 1027-1711, stated change not applied): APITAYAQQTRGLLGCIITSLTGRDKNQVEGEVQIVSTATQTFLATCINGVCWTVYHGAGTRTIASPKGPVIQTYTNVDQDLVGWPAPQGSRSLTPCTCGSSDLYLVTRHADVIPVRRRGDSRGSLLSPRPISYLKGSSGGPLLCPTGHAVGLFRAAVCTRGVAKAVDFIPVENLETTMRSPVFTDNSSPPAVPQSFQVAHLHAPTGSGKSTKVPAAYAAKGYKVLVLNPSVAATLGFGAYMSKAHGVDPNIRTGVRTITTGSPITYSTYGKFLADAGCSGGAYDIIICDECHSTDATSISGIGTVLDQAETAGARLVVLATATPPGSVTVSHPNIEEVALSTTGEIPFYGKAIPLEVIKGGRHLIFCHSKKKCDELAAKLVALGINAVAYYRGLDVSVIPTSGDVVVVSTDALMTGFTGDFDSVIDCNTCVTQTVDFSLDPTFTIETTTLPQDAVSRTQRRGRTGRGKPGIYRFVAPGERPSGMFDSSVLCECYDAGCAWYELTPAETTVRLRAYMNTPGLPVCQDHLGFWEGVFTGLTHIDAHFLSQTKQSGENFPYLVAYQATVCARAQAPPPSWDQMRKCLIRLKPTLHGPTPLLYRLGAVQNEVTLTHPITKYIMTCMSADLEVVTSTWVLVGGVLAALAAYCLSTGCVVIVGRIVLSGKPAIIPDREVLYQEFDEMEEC
HCV NS3/4A protease complex, sequence (P27958 1027-1711, stated change not applied): as above

As for `C=CC1C[C@]1(NC(=O)[C@@H]1C[C@@H](Oc2cc(-c3ccccc3)nc3cc(OC)ccc23)CN1C(=O)C(NC(=O)OC(C)(C)C)C(C)(C)C)C(=O)NS(=O)(=O)c1ccc(NC(C)=O)cc1` (stereo partly drawn) [Compound 58], the IC50 – broadly, the concentration needed to halve the response being measured – in assay [1] (IC50, NS3/4A protease enzyme assay, strain not stated, activity ranges) is < 50 nM; in assay [1] (IC50, strain not stated), 21 nM; against human liver cathepsin B, > 100000 nM.
